# Structures can show the parent of a compound that is named as a salt.
# Legend:
# porcine liver CES = target: T1, porcine liver CES (Sus scrofa, UniProt Q29550); assay: CES inhibition, 4-nitrophenyl acetate hydrolysis; type: biochemical; conditions: for inhibition at 20 µM: read-out: % of inhibition of CES with 20 µM concentration of the compound
# T1 sequence (Q29550 19-566): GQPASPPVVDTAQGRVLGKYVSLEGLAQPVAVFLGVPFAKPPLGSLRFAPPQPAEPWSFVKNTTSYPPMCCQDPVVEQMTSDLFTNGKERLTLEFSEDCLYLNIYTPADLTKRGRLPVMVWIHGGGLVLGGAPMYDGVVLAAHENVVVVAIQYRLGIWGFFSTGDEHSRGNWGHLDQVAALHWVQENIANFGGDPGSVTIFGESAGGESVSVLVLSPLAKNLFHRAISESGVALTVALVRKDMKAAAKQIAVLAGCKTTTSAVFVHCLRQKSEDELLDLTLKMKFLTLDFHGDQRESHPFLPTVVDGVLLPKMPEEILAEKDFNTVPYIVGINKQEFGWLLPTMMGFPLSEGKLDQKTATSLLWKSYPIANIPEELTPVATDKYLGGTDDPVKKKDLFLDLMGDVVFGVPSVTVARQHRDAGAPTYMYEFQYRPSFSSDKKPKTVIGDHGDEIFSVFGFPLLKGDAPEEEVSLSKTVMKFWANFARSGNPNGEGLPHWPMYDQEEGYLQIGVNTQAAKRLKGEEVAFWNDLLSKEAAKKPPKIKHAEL
# Description: (§1) Reagents blanks consisted of reaction mixtures without substrates. […] Final enzyme and substrate concentrations were 0.02 unit/mL and 1 mM, respectively. Assays were carried out with a blank containing all constituents except porcine CES to assess non-enzymatic hydrolysis. The measurements were performed on a FLUOstar OPTIMA multifunctional microplate reader (BMG LABTECH, Ortenberg, Germany). The compounds were dissolved in DMSO. The incubation mixture contained 2% (v/v) of the solvent. […] The sample of the appropriate enzyme was incubated with the test compound for 5 min, and then the residual enzymatic activity was determined. Each experiment was performed in triplicate. […] Each experiment was performed in triplicate. The IC50 values were calculated with Origin 6.1 software.
# [1] = target: T2, ifenprodil-binding site of NMDA receptor (NR2B subunit) (Rattus norvegicus, UniProt P35439+Q00960); assay: Radioligand binding assay, [3H]ifenprodil displacement
# T2 construct: from tissue; host or cells: rat hippocampus membranes
# T2 sequence (Q00960 27-1482, other chains not shown): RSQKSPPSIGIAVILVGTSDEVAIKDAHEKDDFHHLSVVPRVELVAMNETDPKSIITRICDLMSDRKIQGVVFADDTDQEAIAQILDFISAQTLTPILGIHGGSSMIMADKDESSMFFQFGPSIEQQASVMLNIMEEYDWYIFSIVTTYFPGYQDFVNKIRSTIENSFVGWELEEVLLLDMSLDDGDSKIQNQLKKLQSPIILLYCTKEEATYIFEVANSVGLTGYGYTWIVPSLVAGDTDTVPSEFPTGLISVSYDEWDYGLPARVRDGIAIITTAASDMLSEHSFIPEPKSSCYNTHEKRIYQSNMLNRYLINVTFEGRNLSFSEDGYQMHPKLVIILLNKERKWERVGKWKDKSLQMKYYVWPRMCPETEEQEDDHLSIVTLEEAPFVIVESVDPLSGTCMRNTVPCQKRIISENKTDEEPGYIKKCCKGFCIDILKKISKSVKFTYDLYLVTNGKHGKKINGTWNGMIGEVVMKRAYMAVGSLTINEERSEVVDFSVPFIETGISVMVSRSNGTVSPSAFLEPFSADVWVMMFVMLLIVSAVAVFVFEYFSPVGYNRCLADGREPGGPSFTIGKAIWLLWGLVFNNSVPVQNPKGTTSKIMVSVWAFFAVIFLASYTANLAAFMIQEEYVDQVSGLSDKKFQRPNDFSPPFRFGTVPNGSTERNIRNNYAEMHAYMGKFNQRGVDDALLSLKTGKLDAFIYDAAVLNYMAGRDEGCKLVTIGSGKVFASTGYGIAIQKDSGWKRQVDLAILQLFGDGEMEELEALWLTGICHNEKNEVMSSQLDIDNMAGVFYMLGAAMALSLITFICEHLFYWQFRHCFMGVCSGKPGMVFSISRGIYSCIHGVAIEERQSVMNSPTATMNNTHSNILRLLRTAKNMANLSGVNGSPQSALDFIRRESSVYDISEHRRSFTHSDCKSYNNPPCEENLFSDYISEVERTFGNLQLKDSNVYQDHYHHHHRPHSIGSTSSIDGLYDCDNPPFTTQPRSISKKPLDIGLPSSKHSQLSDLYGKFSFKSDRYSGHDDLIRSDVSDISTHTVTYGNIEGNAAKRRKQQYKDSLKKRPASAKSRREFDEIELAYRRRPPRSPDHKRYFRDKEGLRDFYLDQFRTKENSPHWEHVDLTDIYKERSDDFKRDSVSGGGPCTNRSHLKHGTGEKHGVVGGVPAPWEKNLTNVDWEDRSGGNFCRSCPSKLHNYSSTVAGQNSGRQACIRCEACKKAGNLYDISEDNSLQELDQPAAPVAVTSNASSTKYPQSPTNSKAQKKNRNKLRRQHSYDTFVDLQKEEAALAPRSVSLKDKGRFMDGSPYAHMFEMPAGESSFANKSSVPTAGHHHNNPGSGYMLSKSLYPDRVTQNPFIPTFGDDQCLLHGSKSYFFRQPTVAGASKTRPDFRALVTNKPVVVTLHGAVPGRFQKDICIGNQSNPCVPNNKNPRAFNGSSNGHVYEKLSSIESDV
# Description: (§2) The effect of the test compounds on radioligand binding to NMDA receptors was evaluated by a modified method, as previously reported [83]. The following two radioligands were used: [^3H] […] A hippocampal membrane preparation for the radioligand binding assay was made as described previously [86, 87]. The obtained membrane pellet was resuspended in a working buffer (5 mM HEPES/4.5 mM Tris, pH 7.6 at 4 °C) in a ratio of 1:5 and stored in liquid nitrogen. The reaction mixture (the final volume was 0.5 mL) contained the working buffer (200 μL), a 50 nM radioligand solution (50 μL) and the membrane suspension (250 μL). The nonspecific binding was evaluated in the presence of 1 mM of the unlabeled ligand (50 μL).
# (§3) For the binding assay, the reaction mixture was incubated at room temperature for 2 h. After the incubation, the samples were filtered through GF/B glass fiber filters (Whatman), washed with the working buffer, dried and transferred to scintillation vials. Then the scintillation fluid (5 mL), which is composed of diphenyloxazole (PPO) (4 g) and bis(5-phenyl-2-oxazolyl)benzene (POPOP) (0.2 g) in toluene (1 L) were added to the vials.
# (§4) The effect of the test compounds on the binding of [^3H] […] The values of Ki were calculated according to a previously described method [88].
# [2] = test system: isolated rat liver mitochondria; assay: Ca2+-induced mitochondrial swelling (MPT pore opening); type: biochemical; conditions: 30 µM compound; 12.5 µM Ca2+; 10 mM glutamate, 2 mM malate, 10 mM succinate; percentage relative to the reference compound
# Description: Experiments were performed using outbred male rats weighing 200–220 g. The animals were housed under standard vivarium conditions in a normal day/night cycle and had ad libitum access to water and food. The procedure of rat euthanasia using carbon dioxide (CO2) inhalation for mitochondria preparation is in compliance with the Guidelines for Animal Experiments, which were approved by the local bioethics committee of the IPAC RAS.
# Rat liver mitochondria were isolated by conventional differential centrifugation. Membrane potential of rat liver mitochondria was measured using the potential-sensitive fluorescent probe Safranine A on a Victor 3 multilabel plate reader (Perkin Elmer, Waltham, MA, USA). The fluorescence was recorded at λex = 485 nm and λem = 590 nm. Mitochondrial swelling was measured by spectrophotometry in 96-well clear bottom plates on a Victor 3 microplate reader (Perkin Elmer, Waltham, MA, USA) at 620 nm; CaCl2 was added to induce mitochondrial swelling (MPT opening).
# [3] = target: T3, MK-801-binding (intrachannel) site of NMDA receptor (Rattus norvegicus, UniProt P35439); assay: Radioligand binding assay, [3H]MK-801 displacement
# T3 construct: from tissue; host or cells: rat hippocampus membranes
# Description: as §2, §3, §4
# equine serum BChE = target: T4, equine serum BChE (Equus caballus, UniProt P81908); assay: biochemical; conditions: mean ± SEM, n = 3; for IC50: 5 min incubation
# T4 construct: equine serum BChE; purchased Sigma; host or cells: equine serum
# T4 sequence (P81908 whole entry): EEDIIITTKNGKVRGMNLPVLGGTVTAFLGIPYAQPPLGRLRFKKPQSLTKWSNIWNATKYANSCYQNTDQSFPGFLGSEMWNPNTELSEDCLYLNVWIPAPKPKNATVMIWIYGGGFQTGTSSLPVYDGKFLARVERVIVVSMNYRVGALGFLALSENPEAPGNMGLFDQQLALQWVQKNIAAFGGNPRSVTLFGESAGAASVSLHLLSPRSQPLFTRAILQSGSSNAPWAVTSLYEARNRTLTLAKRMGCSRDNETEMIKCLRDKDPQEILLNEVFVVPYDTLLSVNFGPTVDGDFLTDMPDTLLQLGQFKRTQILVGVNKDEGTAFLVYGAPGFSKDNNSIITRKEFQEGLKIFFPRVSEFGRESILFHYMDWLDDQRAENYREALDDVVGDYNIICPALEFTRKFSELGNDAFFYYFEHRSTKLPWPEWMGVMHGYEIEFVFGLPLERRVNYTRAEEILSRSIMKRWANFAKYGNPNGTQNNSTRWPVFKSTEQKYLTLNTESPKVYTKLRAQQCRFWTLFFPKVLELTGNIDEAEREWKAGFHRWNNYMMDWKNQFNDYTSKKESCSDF
# Description: as §1
# PAS of EeAChE = target: T5, PAS of EeAChE (Electrophorus electricus, UniProt O42275); type: binding; conditions: 20 µM compound; 7 µM EeAChE, 8 µM propidium iodide; mean ± SEM, n = 3
# T5 construct: AChE from Electrophorus electricus (EeAChE, type VI-S, lyophilized powder); purchased Sigma-Aldrich type VI-S; host or cells: Electrophorus electricus tissue
# T5 sequence (O42275 24-633): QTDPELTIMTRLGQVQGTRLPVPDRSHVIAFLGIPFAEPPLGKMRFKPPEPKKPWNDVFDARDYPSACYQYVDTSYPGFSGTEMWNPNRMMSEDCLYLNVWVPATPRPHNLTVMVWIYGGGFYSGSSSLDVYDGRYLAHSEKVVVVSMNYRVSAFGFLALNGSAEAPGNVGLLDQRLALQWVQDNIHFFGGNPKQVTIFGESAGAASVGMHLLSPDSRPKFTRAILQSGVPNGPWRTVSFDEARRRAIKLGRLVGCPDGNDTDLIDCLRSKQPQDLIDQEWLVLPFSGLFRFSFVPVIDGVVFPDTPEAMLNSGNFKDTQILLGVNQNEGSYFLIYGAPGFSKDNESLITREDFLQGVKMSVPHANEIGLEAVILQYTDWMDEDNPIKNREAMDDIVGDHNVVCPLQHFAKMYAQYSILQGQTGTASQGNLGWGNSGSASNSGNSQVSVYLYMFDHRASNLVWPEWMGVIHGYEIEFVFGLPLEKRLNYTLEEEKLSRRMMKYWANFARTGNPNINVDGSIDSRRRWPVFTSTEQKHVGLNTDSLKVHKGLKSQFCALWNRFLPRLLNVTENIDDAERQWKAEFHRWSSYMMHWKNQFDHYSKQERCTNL
# Description: The compounds were evaluated as potential inhibitors of proaggregation activity of AChE by measuring the displacement of propidium iodide from the PAS of the enzyme [53] using a fluorescence method [28]. AChE from Electrophorus electricus (EeAChE, type VI-S, lyophilized powder, Sigma-Aldrich, St. Louis, MO, USA) was used for consistency with our previous studies [8, 13, 63, 74]. The fluorescence intensity of propidium iodide bound to AChE increases several-fold. A decrease in the fluorescence intensity in the presence of the test compounds is indicative of their ability to bind to the AChE PAS and, correspondingly, to inhibit β-amyloid aggregation.
# EeAChE (7 µM) was incubated with 20 µM of the test compound in 1 mM Tris-HCl buffer, pH 8.0, at 25 °C for 15 min. Then a solution of propidium iodide was added (final concentration 8 µM), the mixture was incubated for 15 min, and the fluorescence spectrum was recorded (excitation at 530 nm and emission at 600 nm). […] The blank contained propidium iodide at the same concentration in 1 mM Tris-HCl buffer, pH 8.0 at 25 °C. The measurements were performed in triplicate on a FLUOstar OPTIMA multifunctional microplate reader.
# The degree of displacement of propidium iodide from the PAS of AChE (% displacement) was calculated by the equation:% displacement = 100 − (IFAChE + Propidium + inhibitor/IFAChE + Propidium) × 100, where IFAChE + Propidium is the fluorescence intensity of propidium iodide bound to EeAChE in the absence of the test compound (taken as 100%), and IFAChE + Propidium + inhibitor is the fluorescence intensity of propidium iodide bound to EeAChE in the presence of the test compound.
# [4] = test system: tubulin and microtubule-associated proteins (Tb+MAP); assay: GTP-dependent Tb+MAP polymerization; type: biochemical, mouse; conditions: 100 µM compound; for Rate of Tb+MAP Polymerization (dA355/dt): 0.1 mM GTP, 37 °C
# Excerpt: A crude fraction of tubulin and microtubule-associated proteins (Tb+MAP) was isolated from mouse brain tissue by a polymerization–depolymerization method. The procedure of mouse euthanasia using cervical dislocation for Tb+MAP preparation is in compliance with the Guidelines for Animal Experiments, which were approved by the local bioethics committee of the IPAC RAS. The freshly dissected brain was immediately placed on ice, cleared of meninges and surface blood vessels, and washed with cold buffer A (50 mM Tris-HCl, pH 6.9 at 4 °C, 2 mM EGTA). The extracted brain tissue was homogenized under ice cooling in the same buffer using a Potter S homogenizer (Sartorius). The resulting homogenate was centrifuged at 10,000× g for 30 min on an Avanti 25 centrifuge (Beckman) using a JA-14 rotor for the precipitation of non-ruptured cells. The precipitate was discarded, and the supernatant was again centrifuged at 100,000× g for 60 min at 4 °C on an Optima MAX XP centrifuge (Beckman) using a MLA-50 rotor. The precipitate was again discarded. The protein concentration in the supernatant was determined by the Bradford assay using the Bio-Rad Protein Assay kit (Bio-Rad, Hercules, CA, USA) according to manufacturer’s instructions. The resulting supernatant was a cytosolic fraction enriched in microtubular proteins (Tb and MAP).
# The Tb+MAP preparation was centrifuged at 5000× g for 10 min at 4 °C immediately before polymerization in order to remove denatured and aggregated protein molecules by precipitation. The Tb+MAP polymerization was performed at 37 °C in buffer A in the presence of 0.1 mM GTP after addition of 100 µM of test compound or the same volume of vehicle (DMSO). The protein concentration in the sample was 0.2 mg/mL. The polymerization kinetics was monitored on a Victor 3 or EnVision microplate reader (Perkin Elmer, USA) at 355 nm and the stabilized rate of polymerization after the first wave was measured (dA355/dt).
# human erythrocyte AChE = target: T6, human erythrocyte AChE (Homo sapiens, UniProt P22303); assay: biochemical; conditions: mean ± SEM, n = 3; for inhibition at 20 µM: read-out: % of inhibition of AChE with 20 µM concentration of the compound, 20 µM compound; for IC50: 5 min incubation
# T6 construct: commercial human erythrocyte AChE; purchased Sigma; host or cells: human erythrocytes
# T6 sequence (P22303 32-617 isoform P22303-2 limits assumed): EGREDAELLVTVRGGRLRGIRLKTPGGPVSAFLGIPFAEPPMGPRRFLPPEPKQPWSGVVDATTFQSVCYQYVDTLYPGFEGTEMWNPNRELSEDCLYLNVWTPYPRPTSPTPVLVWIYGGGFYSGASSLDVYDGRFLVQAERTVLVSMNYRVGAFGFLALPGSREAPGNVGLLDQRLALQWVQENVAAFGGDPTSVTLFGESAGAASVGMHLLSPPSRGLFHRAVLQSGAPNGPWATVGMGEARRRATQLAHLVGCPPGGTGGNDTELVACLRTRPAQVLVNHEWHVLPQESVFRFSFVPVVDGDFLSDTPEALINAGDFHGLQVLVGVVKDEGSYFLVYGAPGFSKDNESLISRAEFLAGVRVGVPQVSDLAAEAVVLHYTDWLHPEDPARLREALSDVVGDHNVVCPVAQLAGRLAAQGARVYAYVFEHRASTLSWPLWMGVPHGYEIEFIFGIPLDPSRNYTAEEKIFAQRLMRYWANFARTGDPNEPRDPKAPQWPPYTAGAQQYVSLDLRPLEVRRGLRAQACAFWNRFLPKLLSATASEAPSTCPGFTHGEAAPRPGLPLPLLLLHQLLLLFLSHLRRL
SMILES,"IC50 (porcine liver CES; 5 min incubation, mean ± SEM, n = 3)",Ki [1],Rate of Ca2+-Induced Mitochondrial Swelling (dA620/dt) [2],inhibition at 20 µM (porcine liver CES),Ki [3],IC50 (equine serum BChE),% of Displacement of Propidium Iodide from the PAS of EeAChE (PAS of EeAChE),Rate of Tb+MAP Polymerization (dA355/dt) [4],inhibition at 20 µM (human erythrocyte AChE),IC50 (human erythrocyte AChE),"Increase of the rate of Tb+MAP polymerization, factor [4]","inhibition at 20 µM (equine serum BChE; read-out: % of inhibition of BChE with 20 µM concentration of the compound, 20 µM compound)"
"O=[N+]([O-])c1ccc(OP(=O)(O)Oc2ccc([N+](=O)[O-])cc2)cc1 [BNPP, bis-4-nitrophenyl phosphate, reference compound]",1.8 ± 0.11 µM,–,–,–,–,–,–,–,–,–,–,–
"CN1CCc2c(c3ccccc3n2CCNC23CC4CC(C)(CC(C)(C4)C2)C3)C1.Cl.Cl [Compound 4a, 3,5-Dimethyl-N-(2-(2-methyl-3,4-dihydro-1H-pyrido[4,3-b]indol-5(2H)-yl)ethyl)-adamantane-1-amine dihydrochloride]",–,1.7 ± 0.2 µM,33 ± 4%,15.6 ± 0.3%,1.9 ± 0.2 µM,0.666 ± 0.037 µM,12.5 ± 1.1%,126 ± 9%,19.5 ± 0.3%,–,–,–
"Cc1ccc2c(c1)c1c(n2CCNC23CC4CC(C)(CC(C)(C4)C2)C3)CCN(C)C1.Cl.Cl [Compound 4b, N-(2-(2,8-Dimethyl-3,4-dihydro-1H-pyrido[4,3-b]indol-5(2H)-yl)ethyl)-3,5-dimethyladamantane-1-amine dihydrochloride]",–,8.8 ± 1 µM,39 ± 7%,10.4 ± 0.5%,7.9 ± 0.8 µM,5.07 ± 0.09 µM,14.7 ± 0.9%,153 ± 33%,–,50.3 ± 3.4 µM,–,–
"CN1CCc2c(c3ccccc3n2CCNC23CC4CC(CC(C4)C2)C3)C1.Cl.Cl [Compound 4d, N-(2-(2-Methyl-3,4-dihydro-1H-pyrido[4,3-b]indol-5(2H)-yl)ethyl)adamantane-1-amine dihydrochloride]",–,4.4 ± 0.3 µM,35 ± 13%,2.9 ± 0.8%,3.3 ± 0.3 µM,2.48 ± 0.22 µM,10.1 ± 0.9%,162 ± 19%,–,112 ± 5 µM,–,–
"Cc1ccc2c(c1)c1c(n2CCNC23CC4CC(CC(C4)C2)C3)CCN(C)C1.Cl.Cl [Compound 4e, N-(2-(2,8-Dimethyl-3,4-dihydro-1H-pyrido[4,3-b]indol-5(2H)-yl)ethyl)adamantane-1-amine dihydrochloride]",–,8.2 ± 0.9 µM,42 ± 9%,2.5 ± 0.5%,10.3 ± 1.6 µM,9.05 ± 0.8 µM,15.1 ± 1.2%,239 ± 21%,–,63.3 ± 3.3 µM,–,–
"CN1CCc2c(c3cc(F)ccc3n2CCNC23CC4CC(CC(C4)C2)C3)C1.Cl.Cl [Compound 4f, N-(2-(8-Fluoro-2-methyl-3,4-dihydro-1H-pyrido[4,3-b]indol-5(2H)-yl)ethyl)adamantane-1-amine dihydrochloride]",–,5.1 ± 0.5 µM,42 ± 8%,8.6 ± 1.7%,5.4 ± 0.6 µM,2.53 ± 0.1 µM,17.8 ± 1.5%,356 ± 14%,–,13.6 ± 1.3 µM,> 3.5,–
"CN1CCc2c(c3ccccc3n2CC(=O)NC23CC4CC(C)(CC(C)(C4)C2)C3)C1 [Compound 8a, 3,5-Dimethyladamantan-1-yl)-2-(2-methyl-3,4-dihydro-1H-pyrido[4,3-b]indol-5(2H)-yl)acetamide hydrochloride]",–,113 ± 10.4 µM,42 ± 21%,5.2 ± 1.2%,63.5 ± 5.8 µM,9.66 ± 0.52 µM,–,237 ± 55%,7.1 ± 0.5%,–,–,–
"CN1CCc2c(c3cc(F)ccc3n2CC(=O)NC23CC4CC(C)(CC(C)(C4)C2)C3)C1.Cl [Compound 8c, N-(3,5-Dimethyladamantan-1-yl)-2-(8-fluoro-2-methyl-3,4-dihydro-1H-pyrido[4,3-b]indol-5(2H)-yl)acetamide hydrochloride]",–,110 ± 10.8 µM,63 ± 25%,8.4 ± 0.9%,80.6 ± 8.5 µM,6 ± 0.06 µM,–,359 ± 25%,17.3 ± 0.8%,–,> 3.5,–
"CN1CCc2c(c3cc(F)ccc3n2CC(=O)NC23CC4CC(CC(C4)C2)C3)C1.Cl [Compound 8f, N-(Adamantan-1-yl)-2-(8-fluoro-2-methyl-3,4-dihydro-1H-pyrido[4,3-b]indol-5(2H)-yl)acetamide hydrochloride]",–,73.8 ± 7 µM,61 ± 24%,6.2 ± 0.6%,47.3 ± 4.7 µM,17.1 ± 1.3 µM,–,154 ± 14%,22.1 ± 1.8%,–,–,–
"Cc1ccc2c(c1)c1c(n2CCc2ccc(C)nc2)CCN(C)C1 [dimebon, reference compound]",–,77.2 ± 5.7 µM,36 ± 11%,–,50.4 ± 4.3 µM,–,4.1 ± 0.3%,162 ± 23%,–,–,–,–
"CC12CC3CC(C)(C1)CC(N)(C3)C2 [memantine, reference compound]",–,–,70 ± 9%,3 ± 0.4%,–,–,–,89 ± 7%,1.3 ± 0.2%,–,–,13.7 ± 1.5%

# From paper PMC8471380 (Molecules, 2021)
